Reference: EP4624457A1, “I[…] DERIVATIVES, I[…] NEURODEGENERATIVE DISEASES” (Centre National de la Recherche Scientifique, priority 2024, dated 2025)
Values joined by “and” are separate entries in the source; they are usually repeats but may differ in a detail not shown here. Identical values can stand only once. Like-named read-outs stand apart in the source and are kept apart here.

Assays:
[1] = biological target: T1, human α7 nAChR subtype (Homo sapiens, UniProt P36544); experiment: Two-electrode voltage clamp electrophysiology on Xenopus laevis oocytes expressing the α7 nAChR; format: cell-based; details: for IC50: antagonistic activity, TEVC, value (95% CI), 100 µM ACh, 45 s preincubation, Figures 5 and 7
T1 construct: expressed in transfected cells; host or cells: Xenopus laevis oocytes injected with mRNA
Source text: The emerging cyclic imines toxins (CiTXs) of global distribution across coastal environments that are produced by dinoflagellates move fast up the human food chain through shellfish. The CiTX family includes 44 compounds: 7 gymnodimines (A-E, 12-methylgymnodimine and 16-desmethyl gymnodimine D), 16 spirolides (A-D, G-I, 13-desmethyl spirolide-C, 27-Hydroxy-13-desmethyl spirolide-C, 13,19-didesmethyl spirolide-C, 20-hydroxy-13,19-didesmethyl spirolide- C, 27-hydroxy-13,19-spirolide-C, 27-Oxo-13,19-didesmethyl spirolide-C, 13-desmethyl spirolide-D, 20-hydroxy-13,19-didesmethyl spirolide-D and 20-methyl spirolide-G), 8 pinnatoxins (A-H), 3 pteriatoxins (A-C), 6 prorocentrolides (A-B, 4- hydroxyprorocentrolide, 9,51-dihydro prorocentrolide, 30-sulfate prorocentrolide and 14-O-acetyl-4-hydroxyprorocentrolide), 1 spiroprorocentrimine, 2 portimines (A and B), and 1 kabirimine, (Aráoz et al. (2020) Cyclic imine toxins survey in coastal european shellfish samples: Bioaccumulation and mode of action of 28-O-palmitoyl ester of pinnatoxin-G. First report of portimine-A bioaccumulation. Harmful Algae, 98 [1]). The spiroimine moiety is the major feature characterizing cyclic imine toxins. The exception to this rule is prorocentrolides in which a hexahydroisoquinoline group replaces the spiroimine motif, (Torigoe et al. (1988) Prorocentrolide, a toxic nitrogenous macrocycle from a marine dinoflagellate, Prorocentrum-lima. Journal of the American Chemical Society, 110:7876-7877 [2]). Portimines display a 5-membered cyclic imine ring; gymnodimines, prorocentrolides, spiroprorocentrimines and kabirimine present a 6-membered imine ring, while spirolides, pinnatoxins and pteriatoxins display a 7-membered imine ring. Cyclic imine toxins are fast acting neurotoxins that, when administered intraperitoneally or by gavage at lethal doses, kill mice by respiratory arrest within minutes following blockade of neuromuscular nicotinic acetylcholine receptors (nAChR). The mode of action of several cyclic imines on nAChRs has been characterized, namely: gymnodimine-A, 13- desmethyl spirolide- C, 13,19-didesmethyl spirolide-C, 20-methyl spirolide-G, pinnatoxin-A, pinnatoxin-G, prorocentrolide-A and portimine, (Lamoise et al. (2017) Physico-chemical and functional characterization of portimine purified from Vulcanodinium rugosum strain IFR-VRU-01. In "Marine and Fresh-Water Harmful Algae". Proceedings of the 17th International Conference on Harmful Algae (Proença, L.A.O. and Hallegraeff, G. eds) pp. 126-129 ISSHA and IOC/UNESCO, Florianapolis; Molgó et al. (2017) Cyclic imine toxins from dinoflagellates: a growing family of potent antagonists of the nicotinic acetylcholine receptors. Journal of Neurochemistry, 142:41-51 [4]). They are potent antagonists of muscular and neuronal nicotinic acetylcholine receptors with pinnatoxin-A displaying picomolar affinities towards the α7 nicotinic acetylcholine receptor subtype (Aráoz et al. (2011) Total synthesis of pinnatoxins A and G and revision of the mode of action of pinnatoxin A. Journal of the American Chemical Society 133(27):10499-10511 [5]). In contrast, prorocentrolide and portimine show micromolar affinities towards the α7 nicotinic acetylcholine receptor subtype (Lamoise et al. (2017), Stivala et al. (2015) Synthesis and biology of cyclic imine toxins, an emerging class of potent, globally distributed marine toxins. Natural Product Reports, 32(3):411-435 [6]) (Table1). Table 1. Antagonistic activity of CiTX (Two-Electrodes Voltage Clamp electrophysiology).
• Figure 1 represents the chemical structure of ingrilimine according to compound (Illa) formula. • Figure 2 represents the cytotoxic activity of ingrilimine. A2780 ovarian and HT29 colorectal carcinoma cells were grown in RPMI 1640 supplemented with 10% fetal calf serum (FCS) and 1% glutamine. […]

[2] = system: cancer cell lines; experiment: Cytotoxic activity of CiTX, comparison of orders of magnitude; format: cell-based; details: this work
Procedure: Cell viability. […] The cell viability assay was performed using portimine-A as a positive control (Table 4). […] Table 4. Cytotoxic activity of portimine-A and ingrilimine

[3] = system: HCT116 cells; experiment: JC-1 mitochondrial membrane potential assay (flow cytometry); format: cell-based, human
[4] = system: Jurkat cells; details: 50 nM for 6 h; cited from earlier work

T1 sequence (P36544 23-502): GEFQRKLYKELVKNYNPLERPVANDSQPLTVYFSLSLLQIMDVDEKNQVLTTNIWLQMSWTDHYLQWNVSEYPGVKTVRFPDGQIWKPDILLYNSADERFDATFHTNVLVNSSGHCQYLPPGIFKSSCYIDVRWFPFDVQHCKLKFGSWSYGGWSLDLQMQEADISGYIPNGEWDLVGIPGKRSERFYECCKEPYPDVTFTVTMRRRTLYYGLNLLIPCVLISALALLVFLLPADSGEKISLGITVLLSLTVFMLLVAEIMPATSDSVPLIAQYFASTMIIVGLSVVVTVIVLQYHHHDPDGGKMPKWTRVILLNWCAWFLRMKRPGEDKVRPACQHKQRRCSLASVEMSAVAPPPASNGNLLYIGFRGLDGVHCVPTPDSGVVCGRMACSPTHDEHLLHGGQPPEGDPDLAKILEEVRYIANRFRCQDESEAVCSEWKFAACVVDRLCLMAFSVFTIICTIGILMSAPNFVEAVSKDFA

SMILES	peak amplitude relative to the peak amplitude evoked by 100 µM ACh ([1]; agonist activity, 10 µM ingrilimine)	behaviour at micromolar concentrations ([1]; micromolar concentrations, antagonist at nanomolar concentrations)	IC50 ([1]; nAChR subtype (nM; 95% CI) α7 (human))	times more potent than portimine against the human α7 nAChR subtype ([1]; ratio of IC50 values)	cytotoxic activities, order of magnitude [2]	IC50 ([1]; read-out: nAChR subtype (nM; 95% CI) α7 (human))	JC-1 % ([3]; 1 nM, 24 h, cells with mitochondrial membrane depolarization)	JC-1 % ([3]; 1 nM, 48 h)	JC-1 % ([3]; 5 nM, 24 h)	annexin V-positive cells [4]	viable cells [4]
C=CC1=C[C@@H]2C[C@@H](O)[C@@H](O)/C(C)=C/C/C(C)=C/CCC3=NCCC[C@]32CC1 [Ingrilimine, ingrilimine]	-25%	behaves as an agonist	2.3 nM and 2.29 nM	~ 10 000 times	~10^-8 M						
C=CC1=C[C@@H]2[C@@H]3O[C@]4(CC[C@H](O4)[C@@H](C)C[C@@H](O)C3=O)C[C@H](O)C3=NCC[C@@]32CC1 [Portimine-A]						21200 nM	5.1%	8.1%	9.2%	50%	50%
